This note sets out measurements from PMC8035703, “Effect of Synchronous Versus Sequential Regimens on the Pharmacokinetics and Biodistribution of Regorafenib with Irradiation” (Pharmaceutics, 2021).

The data set in a line: Hepatic and renal functions (GPT, creatinine) in rats. It counts as in vivo, Sprague-Dawley rats. To be noted: rat. How it is done: Glutamic-pyruvic transaminase (GPT) and […] were measured to check the influence of different modalities on hepatic function and renal function by a standard colorimetric method, using a Synchron LX20 spectrophotometer (Beckman Coulter) and manufacturer-supplied reagents.

For the compound `CNC(=O)c1cc(Oc2ccc(NC(=O)Nc3ccc(Cl)c(C(F)(F)F)c3)c(F)c2)ccn1` [regorafenib, Regorafenib], the “Creatinine at 240 min” value is, setting by setting: (concurrent RT2 Gy × 1 f'x) 0.25 ± 0.06 mg/dL; (concurrent RT9 Gy × 1 f'x) 0.21 ± 0.02 mg/dL; (regorafenib-only) 0.23 ± 0.04 mg/dL; (sequential RT2 Gy × 1 f'x) 0.22 ± 0.04 mg/dL; (sequential RT9 Gy × 1 f'x) 0.25 ± 0.04 mg/dL. Also, the “Glutamate pyruvate transaminase at 240 min” value reads like this: (concurrent RT2 Gy × 1 f'x) 31.8 ± 5.3 UI; (concurrent RT9 Gy × 1 f'x) 33.5 ± 8.8 UI; (regorafenib-only) 36.3 ± 15.0 UI; (sequential RT2 Gy × 1 f'x) 30.5 ± 6.0 UI; (sequential RT9 Gy × 1 f'x) 33.7 ± 5.2 UI. In addition, the “Glutamate pyruvate transaminase and creatinine, regorafenib with vs without RT” value (different regimens and doses) was “no significant differences”.
